The results in this text go back to the NIST ThermoML archive (doi:10.1016/j.fluid.2017.04.006).

Numbers after ± are expanded uncertainties.

Data set [1] is described as follows: Molar enthalpy of transition or fusion. Conditions: DSC.
For data set [2] the following is noted: DSC.
Data set [3] can be described thus: xn = mol fraction of the nth substance listed. The following applies: 298.15 K, 97.59 kPa, Liquid, Vibrating tube method.

Consider `CS(=O)(=O)[O-].[NH4+]` [ammonium methanesulfonate], for which the “Molar enthalpy of transition or fusion” value in data set [1] (Crystal 1) amounted to 2.03 ± 0.12 kcal/mol; in data set [1] (Crystal 2), 2.32 ± 0.0717 kcal/mol. Also, the Triple point temperature in data set [2] (Crystal 1) turned out to be 470.05 ± 1.8 K; in data set [2] (Crystal 2), 463.05 ± 1.2 K.
Take `CS(=O)(=O)[O-].[NH4+]` [ammonium methanesulfonate] + O: the mass density in data set [3] (x1 = 0.0085) was determined as 1014.9 ± 5.5 kg/m3; in data set [3] (x1 = 0.0178) it was 1033.1 ± 5.6 kg/m3; in data set [3] (x1 = 0.0275), 1050.8 ± 5.7 kg/m3; in data set [3] (x1 = 0.0381), 1068.7 ± 5.8 kg/m3; in data set [3] (x1 = 0.051), 1088.7 ± 5.8 kg/m3; in data set [3] (x1 = 0.0648), 1108.4 ± 5.9 kg/m3. Besides, the mass density in data set [3] (x1 = 0.0951) was 1146.2 ± 5.9 kg/m3; in data set [3] (x1 = 0.1144), 1166.9 ± 5.9 kg/m3; in data set [3] (x1 = 0.1387), 1190.3 ± 5.8 kg/m3.
`CS(=O)(=O)[O-].[Na+]` [sodium methanesulfonate]: the “Molar enthalpy of transition or fusion” value in data set [1] (Crystal) is 5.75 ± 0.129 kcal/mol. Besides, the Triple point temperature in data set [2] (Crystal) came to 625.95 ± 0.8 K.
Take `CS(=O)(=O)[O-].[Na+]` [sodium methanesulfonate] + O: the mass density is on record as 1025 ± 5.6 kg/m3 in data set [3] (x1 = 0.008); 1059.9 ± 5.9 kg/m3 in data set [3] (x1 = 0.0188); 1110.4 ± 6.2 kg/m3 in data set [3] (x1 = 0.0358); 1132.7 ± 6.4 kg/m3 in data set [3] (x1 = 0.0438); 1179.8 ± 6.6 kg/m3 in data set [3] (x1 = 0.0621); 1209.3 ± 6.8 kg/m3 in data set [3] (x1 = 0.0743). Further, the mass density in data set [3] (x1 = 0.0952) is 1255.7 ± 7 kg/m3; in data set [3] (x1 = 0.1087), 1283.5 ± 7.1 kg/m3; in data set [3] (x1 = 0.1247) it was 1313.8 ± 7.2 kg/m3.
